In patent US20060069132A1, “Azolecarboxamide herbicides” (priority 2004, published 2006):

Experiments:
velvetleaf = experiment: Test B pre-/postemergence herbicide test; format: in vivo, Abutilon theophrasti
Method in brief: (§1)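 Pre: seeds sown, then sprayed. Post: 1–4-leaf plants (2–18 cm) sprayed at the same time. Paddy: flooded, treated at 2-leaf stage. Formulation: non-phytotoxic solvent with surfactant. Greenhouse 13–15 days; visual 0–100 score relative to controls.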

barnyardgrass [1] = experiment: Test B pre-/postemergence herbicide test; format: in vivo, Echinochloa crus-galli
Method in brief: (§2)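 Greenhouse pot assay with simultaneous preemergence (treated seed) and postemergence (2–18 cm seedlings) applications of surfactant-containing, non-phytotoxic solvent formulations. Response scored visually 13–15 days later on a 0–100 scale, 100 meaning complete control.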

[2] = test system: small flower umbrella sedge; experiment: Test B flooded paddy test; format: in vivo, Cyperus difformis; conditions: 1000 g ai/ha, scale 0 to 100 (0 no effect, 100 complete control)
Method in brief: (§3)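 Greenhouse test; postemergence application to plants at 1–4 leaves (2–18 cm); paddy species at 2 leaves; evaluated visually vs controls at 13–15 days; scale 0–100 (100 = complete control).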

pigweed = experiment: Test B pre-/postemergence herbicide test; format: in vivo, Amaranthus retroflexus
Method in brief: as §1

corn = experiment: Test B pre-/postemergence herbicide test; format: in vivo, Zea mays
Method in brief: as §1

Surinam grass = experiment: Test B pre-/postemergence herbicide test; format: in vivo, Urochloa decumbens
Method in brief: as §1

barnyardgrass [3] = experiment: Test B flooded paddy test; format: in vivo, Echinochloa crus-galli; conditions: 1000 g ai/ha, scale 0 to 100 (0 no effect, 100 complete control)
Method in brief: as §3

morningglory = experiment: Test B pre-/postemergence herbicide test; format: in vivo, Ipomoea coccinea
Method in brief: as §2

rice = experiment: Test B flooded paddy test; format: in vivo, Oryza sativa; conditions: 1000 g ai/ha, scale 0 to 100 (0 no effect, 100 complete control)
Method in brief: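 Plants grow to 1- to 4-leaf stage (2–18 cm) for postemergence spraying, or to 2-leaf stage for the paddy test. Formulated compound is applied. Greenhouse holding lasts 13–15 days. Response is scored visually relative to controls, 0 no effect to 100 complete control; a dash means no result.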

large crabgrass = experiment: Test B pre-/postemergence herbicide test; format: in vivo, Digitaria sanguinalis
Method in brief: as §1

wild oat = experiment: Test B postemergence herbicide test; format: in vivo, Avena fatua
Method in brief: (§4)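 Each value is a visual 0–100 response rating taken against controls 13 to 15 days after treatment in the greenhouse. Plants received formulated chemical postemergence at the 1- to 4-leaf stage or, in flooded paddy, at the 2-leaf stage.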

wheat = experiment: Test B postemergence herbicide test; format: in vivo, Triticum aestivum; design: key to Wheat plant response rating: 0 = no effect, 100 = complete control
Method in brief: as §4

cocklebur = experiment: Test B pre-/postemergence herbicide test; format: in vivo, Xanthium strumarium
Method in brief: as §2

lambsquarters = experiment: Test B pre-/postemergence herbicide test; format: in vivo, Chenopodium album
Method in brief: as §1

giant foxtail = experiment: Test B pre-/postemergence herbicide test; format: in vivo, Setaria faberi
Method in brief: as §1

[4] = 125 g ai/ha, visual rating, scale 0 (no effect) to 100 (complete control), postemergence
[5] = 500 g ai/ha, visual rating, 0 = no effect, 100 = complete control, preemergence
[6] = postemergence, 500 g ai/ha, scale 0 to 100, 0 is no effect, 100 is complete control
[7] = 125 g ai/ha, 0 = no effect, 100 = complete control, preemergence
[8] = 125 g ai/ha, 0 is no effect, 100 is complete control, preemergence
[9] = Postemergence, 500 g ai/ha, scale 0 (no effect) to 100 (complete control)

CCn1nc(C2(C)CC2)cc1C(=O)Nc1cc(C(=O)N(C)C)ccc1F [Compound 299]
Velvetleaf plant response rating (velvetleaf; [4]): 60
Plant response rating, Velvetleaf (velvetleaf; [5]): 100
Velvetleaf plant response rating (velvetleaf; [6]): 100
Barnyardgrass plant response rating (0 to 100 scale) (barnyardgrass [1]; [7]): 90
Barnyardgrass plant response rating (barnyardgrass [1]; [4]): 10
Plant response rating, Barnyardgrass (barnyardgrass [1]; [5]): 100
Barnyardgrass plant response rating (barnyardgrass [1]; [6]): 90
Sedge, Umbrella plant response rating [2]: 90
Pigweed plant response rating (0 to 100 scale) (pigweed; [7]): 100
Pigweed plant response rating (pigweed; [4]): 90
Plant response rating, Pigweed (pigweed; [5]): 100
Pigweed plant response rating (pigweed; [6]): 100
Corn plant response rating (0 to 100 scale) (corn; [7]): 50
Corn plant response rating (corn; [4]): 0
Plant response rating, Corn (corn; [5]): 90
Corn plant response rating (corn; [6]): 20
Surinam Grass plant response rating (0 to 100 scale) (Surinam grass; [7]): 100
Surinam Grass plant response rating (Surinam grass; [4]): 20
Plant response rating, Surinam Grass (Surinam grass; [5]): 100
Surinam Grass plant response rating (Surinam grass; [6]): 80
Barnyardgrass plant response rating (barnyardgrass [3]): 90
Morningglory plant response rating (0 to 100 scale) (morningglory; [7]): 40
Morningglory plant response rating (morningglory; [4]): 70
Plant response rating, Morningglory (morningglory; [5]): 100
Morningglory plant response rating (morningglory; [6]): 80
Rice plant response rating (rice): 90
Crabgrass, Large plant response rating (0 to 100 scale) (large crabgrass; [7]): 100
Crabgrass, Large plant response rating (large crabgrass; [4]): 10
Plant response rating, Crabgrass, Large (large crabgrass; [5]): 100
Crabgrass, Large plant response rating (large crabgrass; [6]): 90
Oat, Wild plant response rating (wild oat; [4]): 20
Oat, Wild plant response rating (wild oat; [6]): 40
Wheat plant response rating (wheat; [4]): 20
Wheat plant response rating (wheat; [6]): 30
Cocklebur plant response rating (0 to 100 scale) (cocklebur; [7]): 20
Cocklebur plant response rating (cocklebur; [4]): 20
Plant response rating, Cocklebur (cocklebur; [5]): 60
Cocklebur plant response rating (cocklebur; [6]): 70
Lambsquarters plant response rating (0 to 100 scale) (lambsquarters; [7]): 100
Lambsquarters plant response rating (lambsquarters; [4]): 40
Plant response rating, Lambsquarters (lambsquarters; [5]): 100
Lambsquarters plant response rating (lambsquarters; [6]): 100
Foxtail, Giant plant response rating (0 to 100 scale) (giant foxtail; [7]): 100
Foxtail, Giant plant response rating (giant foxtail; [4]): 10
Plant response rating, Foxtail, Giant (giant foxtail; [5]): 100
Foxtail, Giant plant response rating (giant foxtail; [6]): 80

CCc1nn(C(C)(C)C)nc1C(=S)Nc1cccc(C(=S)N(C)C)c1 [Compound 396]
Plant response rating (0 to 100 scale), Velvetleaf (velvetleaf; [8]): 80
Velvetleaf plant response rating (velvetleaf; [4]): 20
Velvetleaf plant response rating (velvetleaf; [9]): 50
Plant response rating (0 to 100 scale), Barnyardgrass (barnyardgrass [1]; [8]): 90
Barnyardgrass plant response rating (barnyardgrass [1]; [4]): 10
Barnyardgrass plant response rating (barnyardgrass [1]; [9]): 20
Sedge, Umbrella plant response rating [2]: 80
Plant response rating (0 to 100 scale), Pigweed (pigweed; [8]): 90
Pigweed plant response rating (pigweed; [4]): 40
Pigweed plant response rating (pigweed; [9]): 70
Plant response rating (0 to 100 scale), Corn (corn; [8]): 80
Corn plant response rating (corn; [4]): 10
Corn plant response rating (corn; [9]): 10
Plant response rating (0 to 100 scale), Surinam Grass (Surinam grass; [8]): 90
Surinam Grass plant response rating (Surinam grass; [4]): 20
Surinam Grass plant response rating (Surinam grass; [9]): 30
Barnyardgrass plant response rating (barnyardgrass [3]): 90
Plant response rating (0 to 100 scale), Morningglory (morningglory; [8]): 60
Morningglory plant response rating (morningglory; [4]): 20
Morningglory plant response rating (morningglory; [9]): 60
Rice plant response rating (rice): 70
Plant response rating (0 to 100 scale), Crabgrass, Large (large crabgrass; [8]): 100
Crabgrass, Large plant response rating (large crabgrass; [4]): 20
Crabgrass, Large plant response rating (large crabgrass; [9]): 20
Oat, Wild plant response rating (wild oat; [4]): 0
Oat, Wild plant response rating (wild oat; [9]): 30
Wheat plant response rating (wheat; [4]): 10
Wheat plant response rating (wheat; 500 g ai/ha, scale 0 to 100, 0 no effect, 100 complete control, preemergence): 100
Wheat plant response rating (wheat; [9]): 20
Plant response rating (0 to 100 scale), Cocklebur (cocklebur; [8]): 40
Cocklebur plant response rating (cocklebur; [4]): 20
Cocklebur plant response rating (cocklebur; [9]): 60
Plant response rating (0 to 100 scale), Lambsquarters (lambsquarters; [8]): 100
Lambsquarters plant response rating (lambsquarters; [4]): 80
Lambsquarters plant response rating (lambsquarters; [9]): 100
Plant response rating (0 to 100 scale), Foxtail, Giant (giant foxtail; [8]): 100
Foxtail, Giant plant response rating (giant foxtail; [4]): 20
Foxtail, Giant plant response rating (giant foxtail; [9]): 30
